Results taken from patent US20260217671A1, “COMPOUND FOR PREVENTING AND/OR TREATING NEURODEGENERATIVE DISEASE” (TYK MEDICINES, INC., priority 2023, published 2026).

Tests used:
[1] = Pharmacokinetic experiment (gavage, plasma); assay type: in vivo; conditions: rat, gavage (p.o.) 10 mg/kg; for AUC(0-t) / Cmax / Tmax: po
Description: Test Example 1 Pharmacokinetic Experiment
Accurately weighed approximately 10 mg of the test sample, dissolved in DMSO to a total volume of 10%, then slowly added 0.5% MC solvent to a total volume of 90% while stirring, sonicated, vortexed, and obtained a solution of visually homogeneous formulation with a concentration of 1 mg/mL; freshly prepared before use.
Pipetted 0.2 mL of the sample into a 1.5 mL centrifuge tube and stored at −80° C. for use in the concentration analysis of the drug solution.
The animals were housed in rat cages and fasted for at least 10 hours prior to the experiment, but had access to water. On the day of the experiment, the animals were weighed and marked on the tail. Blank blood samples were collected prior to drug administration. Blood was collected from the tail vein.
• Route of administration: gavage (p.o.) • Dosage concentration: 1 mg/ml • Dosage: 10 mg/kg • Volume: 10 mL/kg • Procedure: Caught the rat with left hand wearing bite-resistant gloves, hold it upright, inserted the gavage needle into its mouth and throat, and injected the drug into its stomach after confirming that there was no obvious resistance.
Test animals were sampled at 0.5 h, 1 h, 2 h, 4 h, 6 h, 8 h, 12 h, and 24 h post-administration, collected 0.1-0.2 ml of whole blood into EDTA-Na2 anticoagulant tubes, inverted the tubes 3-4 times to mix thoroughly, and centrifuged at 4° C. and 2000 g for 5 minutes to separate the upper layer of plasma. The plasma was promptly transferred to −80° C. for storage and analysis. Blood collection was performed via the tail vein.
(§1) 5. Sample Analysis and Data Processing
(§2) A quantitative detection method for the target compounds was established using Shimadzu liquid chromatography and Triple Quad TM 6500+AB mass spectrometry. The concentration of the parent drug in plasma was analyzed. The analysis results were controlled for variability using quality control samples, and the accuracy of the quality control samples should be between 80% and 120%.
The non-compartmental model in the winnonlin Phoenix software was used to calculate the main pharmacokinetic parameters. These included the area under the pharmacokinetic curve (AUC(0-t) and AUC(0-∞)), elimination half-life (T1/2), maximum plasma concentration (Cmax), and time to reach maximum plasma concentration (Tmax).

[2] = Brain-penetrating pharmacokinetic study (plasma, brain tissue); assay type: in vivo, Sprague-Dawley (SD) rat; conditions: SD rat, gavage (p.o.) 10 mg/kg single dose; for Kp: Sprague-Dawley, brain/plasma, po, read-out: Ratio of total drug in Brain tissue/plasma(B/P)
From the text: Test Example 2 Brain-Penetrating Pharmacokinetic Study
Solvent for Administration: 5% DMSO+10% Solutol HS15+85% physiological saline
Formulation preparation process: weighed an appropriate amount of powder, added an appropriate volume of DMSO, vortexed, then added an appropriate volume of Solutol solution, vortexed, and finally added an appropriate amount of physiological saline, vortexed and sonicated to obtain a homogeneous, clear formulation solution.
Two samples of the formulation were retained before administration, and the remaining formulation after administration was stored at 2-8° C. for shipment.
Laboratory animals were housed in the animal facility of Suzhou Xihua New Drug Development Co., Ltd. (license number: SYXK(Su)2021-0019). The animal facility was equipped with an air conditioning system and had good ventilation. The indoor temperature was maintained 20° C.-26° C., and the humidity was maintained 40%-70%4. Artificial lighting was used in the animal rooms, with 12 hours of light and 12 hours of darkness (except when work lighting was required for experimental operations and cleaning). The experimental animals were allowed to eat and drink water freely.
After purchase, the animals were fed normally for at least 3 days. […] Each rat was marked with a tail tag. Animals in the oral administration group were fasted overnight on the day before administration and resumed feeding 4 hours after administration, and free access to water.
• Route of administration: gavage (p.o.) • Concentration: 1 mg/ml • Dose: 10 mg/kg • Volume: 10 mL/kg • Frequency: Single dose
Before administration, checked the condition of the drug formulation and ensured its uniformity by swirling, stirring, or shaking. Calculated the theoretical dosage volume for each SD rat in each group using the following formula.
4. Sample Collection and Processing
Samples were collected from experimental rats at 0.5 h, 1 h, 2 h, 4 h, 6 h, 8 h, and 24 h after administration.
Plasma: At each time point, 0.15 mL of whole blood was collected via the jugular vein and placed in a tube containing anticoagulant (3 μL of 15% EDTA-K2 solution). The tubes were stored on wet ice and centrifuged within 1 hour (2,000 g, 2-8° C., for 10 minutes) to obtain plasma. The plasma was stored in pre-chilled centrifuge tubes, rapidly frozen in dry ice, and then stored at −60° C. or lower in an ultra-low temperature freezer until LC-MS/MS analysis.
Cerebrospinal fluid: the rats was euthanized using the carbon dioxide method. ~50 μL of cerebrospinal fluid was collected using a puncture method, 1 mL syringe was used with the needle bevel facing upward and the needle tip nearly horizontal to puncture the subarachnoid space, secured the needle and slowly withdrew the cerebrospinal fluid. The sample was stored in dry ice within 30 minutes after collection, then transferred it to a −90~−60° C. environment.
Brain tissue: A cardiac perfusion was performed first, followed by brain tissue extraction. Under deep terminal anesthesia, approximately 8 milliliters of physiological saline were used for cardiac perfusion to flush the remaining blood from the brain tissue out of the circulation. After extraction, the brain tissue was gently washed once with frozen physiological saline, blotted up the water, weighed, and then transferred to a storage environment at −90~−60° C. for cryopreservation.
as §1
as §2, with “the sample” for “plasma”
Winnonlin Phoenix 8.1.0.3530 was used to calculate pharmacokinetic parameters: Tmax, Cmax, AUC(0-t), AUC(0-∞), Tu2, MRT(0-∞), etc. […]

[3] = system: brain slices containing the hippocampus (CA3 stimulation, CA1 recording); assay: Electrophysiological LTP recording (fEPSP in hippocampal brain slices); assay type: cell-based, C57BL/6J mice; conditions: for activation effects on LTP (in words): same detection method as Table 5
Description: Test Example 3 Electrophysiological LTP Recording
3.1 Preparation of Brain Slices:
C57BL/6J mice aged 6-8 weeks was taken and anesthetized, then quickly decapitated. The scalp was cut open, and removed the skull and dura mater. Quickly removed the whole brain and placed it in 0-4° C. artificial cerebrospinal fluid (ACSF) saturated with 95% O2 and 5% CO2 to cool it slightly. Resected the cerebellum and one-third of the forebrain, divided the brain into two halves along the midline, and dissected the hippocampus along the cortical margin from the medial side of the brain. The brain tissue containing the hippocampus was fixed on a slide dish with glue, and cut into 400-micron-thick brain slices in the coronal plane by a vibrating microtome. The brain slices were then placed in an incubation chamber on a nylon mesh submerged beneath the liquid surface, continuously supplied with a mixed gas, and incubated at 34° C. in a water bath for 0.5 h. The slices were then transferred to room temperature (26±1° C.) for further incubation until ready for use, with the experiment commencing 2-3 hours later.
3.2 In vitro brain slice potential recording:
Under direct visualization with a surgical microscope, a bipolar metal tungsten wire stimulation electrode with exposed tip was placed on the Schaffer collateral pathway of the CA3 region. The stimulation electrode was connected to the stimulator via an isolator, and the recording electrode was connected to a […] via a microelectrode amplifier, and then connected to data acquisition software.
3.3 Electrophysiological recording:
Before recording field excitatory postsynaptic potentials (fEPSPs), the brain slice was transferred to a recording chamber, and continuously perfused the cerebrospinal fluid in a water bath with a mixture of gases (95% 02, 5% CO2). The stimulation electrode was inserted into the CA3 region of the hippocampus, and the recording electrode was inserted into the CA1 region of the hippocampus. When approaching the target location, the insertion depth of the stimulation electrode and recording electrode was slowly and precisely adjusted. At the same time, a pulse with a width of 1 ms was applied every 10-20 s, and the stimulus intensity was adjusted until the optimal fEPSP was achieved. Then the electrode position was fixed, and a stimulus intensity achieving 30-40% of the maximum response elicited at the optimal fEPSP was set as a stimulus intensity to record a baseline of fEPSP. The recording was continued for 20-30 min to establish a stable baseline value. Subsequently, perfusion administration was performed (initial exploratory dose of 30 μM), with the administration duration ranging from 20-30 minutes (depending on the drug's efficacy). If the drug enhanced or reduced fEPSP, normal ACSF was used for elution for 40-60 minutes to observe whether the enhanced effect could be sustained over the long term: if there was no significant change in fEPSP, the experiment was terminated. […] Experimental data and images were processed using Clampfit software.
4. Data Statistics and Analysis:
All experimental data were expressed as mean±standard error (Mean f SEM). All statistical analyses were performed using one-way ANOVA. Significant differences were indicated as follows: *p≤0.05, **p≤0.01, ***p≤0.001. p>0.05 indicated no significant difference.

| Compound | AUC(0-t) [1] | Cmax [1] | Tmax [1] | activation effects on LTP (in words) [3] | also measured |
| --- | --- | --- | --- | --- | --- |
| O=C1C=C(OCc2ccc(F)cc2)[C@H](Cc2ccccc2)N1 [Compound 50561, reference compound] | 2500 ng·h/mL | 838 ng/mL | 79.8 min | – | – |
| O=C1C=C(OCc2ccc(F)cc2)[C@H](Cc2ccccn2)N1 [Compound T-01] | 3500 ng·h/mL | 1020 ng/mL | 79.8 min | – | Total drug exposure (AUC) in brain tissue ([2]; brain tissue): 1198 ng·h/mL; Total drug exposure (AUC) in brain tissue ([2]; plasma): 1929 ng·h/mL; Kp [2]: 0.621; electrical signal conduction in brain slices (in words) ([3]; perfusion administration, hippocampal slices): significantly enhanced electrical signal conduction in brain slices; activation of LTP compared with the control compound (in words) ([3]; versus Compound 50561): higher activation of LTP |
| O=C1C=C(OCc2ccc(F)cc2)[C@H](Cc2ncccc2F)N1 [Compound T-36] | 2470 ng·h/mL | 1420 ng/mL | 25.2 min | excellent activation effects on LTP | – |
| [2H]C([2H])(OC1=CC(=O)N[C@H]1Cc1ccccc1)c1ccc(F)cc1 [Compound T-45] | 3410 ng·h/mL | 1880 ng/mL | 30 min | – | – |
| C[C@@H](OC1=CC(=O)N[C@H]1Cc1ccccc1)c1ccc(F)cc1 [Compound T-47] | 6730 ng·h/mL | 1890 ng/mL | 90 min | excellent activation effects on LTP | pharmacokinetic properties (in words) [1]: excellent pharmacokinetic properties; Total drug exposure (AUC) in brain tissue ([2]; brain tissue): 11452 ng·h/mL; Total drug exposure (AUC) in brain tissue ([2]; plasma): 5529 ng·h/mL; Kp [2]: 2.07 |
| C[C@@H](OC1=CC(=O)N[C@H]1Cc1ccccn1)c1ccc(F)cc1 [Compound T-51] | 5700 ng·h/mL | 2970 ng/mL | 15 min | excellent activation effects on LTP | pharmacokinetic properties (in words) [1]: excellent pharmacokinetic properties |
| C[C@@H](OC1=CC(=O)N[C@H]1Cc1ncccc1F)c1ccc(F)cc1 [Compound T-54] | – | – | – | excellent activation effects on LTP | – |
| C[C@H](c1ccccn1)[C@@H]1NC(=O)C=C1OCc1ccc(F)cc1 [Compound T-73] | – | – | – | excellent activation effects on LTP | – |
| C[C@@H](c1ccccn1)[C@@H]1NC(=O)C=C1OCc1ccc(F)cc1 [Compound T-74] | – | – | – | excellent activation effects on LTP | – |
| C[C@H](c1ncccc1F)[C@@H]1NC(=O)C=C1OCc1ccc(F)cc1 [Compound T-75] | – | – | – | excellent activation effects on LTP | – |
| C[C@@H](c1ncccc1F)[C@@H]1NC(=O)C=C1OCc1ccc(F)cc1 [Compound T-76] | – | – | – | excellent activation effects on LTP | – |
| C[C@H](c1ccccn1)[C@@H]1NC(=O)C=C1O[C@H](C)c1ccc(F)cc1 [Compound T-79] | – | – | – | excellent activation effects on LTP | – |
| C[C@@H](OC1=CC(=O)N[C@H]1[C@@H](C)c1ccccn1)c1ccc(F)cc1 [Compound T-80] | – | – | – | excellent activation effects on LTP | – |
| C[C@@H](c1ccccc1)[C@@H]1NC(=O)C=C1OCc1ccc(F)cc1 [Compound T-95] | 5800 ng·h/mL | 1030 ng/mL | 49.8 min | – | pharmacokinetic properties (in words) [1]: excellent pharmacokinetic properties |
| C[C@H](c1ncccc1F)[C@@H]1NC(=O)C=C1O[C@H](C)c1ccc(F)cc1 [Compound T-99] | – | – | – | excellent activation effects on LTP | – |
| C[C@@H](OC1=CC(=O)N[C@H]1[C@@H](C)c1ncccc1F)c1ccc(F)cc1 [Compound T-100] | – | – | – | excellent activation effects on LTP | – |
